Measurements taken from ChEMBL document CHEMBL1122256, “Novel tetracyclic spiropiperidines. 3. 1-arylspiro[indoline-3,4'-piperidine]s as potential antidepressants” (J Med Chem, 1983).

Legend:
Rattus norvegicus [1] = assay: Potentiation of head twitching induced by 5-HTP in pargyline-pretreated rats following i.p. administration.; format: functional; details: ip
Mus musculus [2] = assay: Antidepressant activity by tetrabenazine ptosis prevention in mice after oral administration; format: functional
Mus musculus [3] = assay: Inhibition of tetrabenazine ptosis in mice following i.p. administration.; format: functional; details: ip
Mus musculus [4] = assay: Antidepressant activity by tetrabenazine ptosis prevention in mice after oral administration
Mus musculus [5] = assay: Antidepressant activity by tetrabenazine ptosis prevention in mice after intraperitoneal administration; details: ip
Mus musculus [6] = assay: Antidepressant activity by tetrabenazine ptosis prevention in mice after intraperitoneal administration; d = All animals died after tetrabenazine dosing; format: functional, organism-based
Rattus norvegicus [7] = assay: In vivo antidepressant activity against muricide in rat after intraperitoneal administration; format: functional; details: ip
Mus musculus [8] = assay: Antidepressant activity by tetrabenazine ptosis prevention in mouse after oral administration; format: functional
Rattus norvegicus [9] = assay: In vivo antidepressant activity measured by potentiation of head twitching induced by 5-HTP in pargyline-pretreated rats after intraperitoneal administration; format: functional; details: ip
[10] = system: Monoamine oxidase (Rattus norvegicus); assay: In vitro inhibition of MAO against mitochondrial preparation in rat whole brain
Rattus norvegicus [11] = species: Rattus norvegicus; assay: In vitro inhibition of neuronal uptake against dopamine in rat striatum; format: functional
Rattus norvegicus [12] = species: Rattus norvegicus; assay: In vitro inhibition of neuronal uptake against norepinephrine in rat whole brain; format: functional
Rattus norvegicus [13] = species: Rattus norvegicus; assay: In vitro inhibition of neuronal uptake against serotonin in rat whole brain; format: functional
Mus musculus [14] = assay: In vivo antidepressant activity measured by yohimbine toxicity potentiation in mouse after intraperitoneal administration; format: functional; details: ip
Mus musculus [15] = assay: In vivo antidepressant activity by tetrabenazine ptosis prevention in mouse after intraperitoneal administration; details: ip
Mus musculus [16] = assay: In vivo antidepressant activity by tetrabenazine ptosis prevention in mice after oral administration; format: functional
Mus musculus [17] = assay: In vivo antidepressant activity by tetrabenazine ptosis prevention in mice after intraperitoneal administration; format: functional; details: ip
Mus musculus [18] = assay: Antidepressant activity by tetrabenazine ptosis prevention in mice after peroral administration; format: functional; details: po
Rattus norvegicus [19] = assay: Antidepressant activity measured by potentiation of head twitching induced by 5-HTP in pargyline-pretreated rats after intraperitoneal administered; format: functional; details: ip

| SMILES | ED50 (Rattus norvegicus [1]) | ED50 (Mus musculus [3]) | other results |
| --- | --- | --- | --- |
| CN1CCC2(CC1)CN(c1ccccc1Cl)c1ccccc12.O=C(O)/C=C\C(=O)O | > 10 mg/kg |  | ED50 (Mus musculus [2]): 3.2 mg/kg |
| Br.CN1CCC2(CC1)CN(c1ccccn1)c1ccccc12 | > 10 mg/kg | > 20 mg/kg |  |
| CN1CCC2(CC1)CN(c1ccc(Cl)cc1)c1ccccc12 | > 10 mg/kg | > 20 mg/kg |  |
| CNCCCN1c2ccccc2CCc2ccccc21 [DESIPRAMINE] | > 10 mg/kg | 0.8 mg/kg | ED50 (Mus musculus [4]): 1.6 mg/kg |
| Cl.Cl.Nc1ccccc1N1CC2(CCNCC2)c2ccc(Cl)cc21 | > 10 mg/kg | > 20 mg/kg |  |
| CN1CCC2(CC1)CN(c1cccc(C(F)(F)F)c1)c1ccccc12 | > 10 mg/kg | > 20 mg/kg |  |
| CN1CCC2(CC1)CN(c1ccccc1)c1ccccc12 | > 10 mg/kg | > 20 mg/kg |  |
| CN1CCC2(CC1)CN(c1ccccc1Cl)c1cc(Cl)ccc12.O=C(O)/C=C\C(=O)O | > 10 mg/kg | 2.6 mg/kg |  |
| CN1CCC2(CC1)CN(c1ccc(C(F)(F)F)cc1)c1ccccc12 | 7.8 mg/kg | > 20 mg/kg | ED50 (Mus musculus [5]): > 20 mg/kg |
| CN1CCC2(CC1)CN(c1ccccc1C(F)(F)F)c1cc(Cl)ccc12.O=C(O)/C=C\C(=O)O | > 10 mg/kg | > 8 mg/kg |  |
| CN1CCC2(CC1)CN(c1ccccc1N)c1ccccc12.Cl | > 10 mg/kg | 4 mg/kg |  |
| Cl.O=[N+]([O-])c1ccccc1N1CC2(CCNCC2)c2ccccc21 | > 10 mg/kg |  | ED50 (Mus musculus [6]): All animals died |
| Clc1ccccc1N1CC2(CCNCC2)c2ccccc21.O=C(O)/C=C\C(=O)O |  |  | ED50 (Rattus norvegicus [7]): 4.9 mg/kg; ED50 (Mus musculus [8]): 0.37 mg/kg; ED50 (Rattus norvegicus [9]): 4.7 mg/kg; IC50 [10]: 160 µM; IC50 (Rattus norvegicus [11]): 8 µM; IC50 (Rattus norvegicus [12]): 6.5 µM; IC50 (Rattus norvegicus [13]): 1.7 µM; ED50 (Mus musculus [14]): 1.6 mg/kg; ED50 (Mus musculus [15]): 1.2 mg/kg |
| c1ccc(C2OC3(CCNCC3)c3ccccc32)cc1 (configuration not stated) | 1.9 mg/kg | 0.5 mg/kg | ED50 (Mus musculus [4]): 1 mg/kg |
| CN(C)CCC=C1c2ccccc2CCc2ccccc21 [AMITRIPTYLINE] |  |  | ED50 (Rattus norvegicus [7]): 22.6 mg/kg; ED50 (Rattus norvegicus [9]): 7.1 mg/kg; ED50 (Mus musculus [16]): 1.94 mg/kg; ED50 (Mus musculus [17]): 1.5 mg/kg; ED50 (Mus musculus [14]): 8 mg/kg |
| CN1CCC2(CC1)CN(c1ccccc1F)c1ccccc12.O=C(O)/C=C\C(=O)O | > 10 mg/kg | 15.2 mg/kg |  |
| CN1CCC2(CC1)CN(c1ccccc1[N+](=O)[O-])c1ccccc12 | > 10 mg/kg |  | ED50 (Mus musculus [5]): 4 mg/kg; ED50 (Mus musculus [18]): 8.4 mg/kg |
| CN1CCC2(CC1)CN(c1ccccc1F)c1cc(Cl)ccc12.O=C(O)/C=C\C(=O)O | > 10 mg/kg | 11 mg/kg |  |
| Fc1ccc(N2CC3(CCNCC3)c3ccccc32)cc1.O=C(O)/C=C\C(=O)O | > 10 mg/kg | > 20 mg/kg | ED50 (Mus musculus [5]): > 20 mg/kg |
| Fc1ccccc1N1CC2(CCNCC2)c2ccc(Cl)cc21.O=C(O)/C=C\C(=O)O | > 10 mg/kg | > 8 mg/kg |  |
| CN1CCC2(CC1)CN(c1ccccc1N)c1cc(Cl)ccc12.Cl.Cl | > 10 mg/kg | > 20 mg/kg |  |
| Br.CN1CCC2(CC1)CN(c1ccc(F)cc1)c1ccccc12 |  | > 20 mg/kg | ED50 (Mus musculus [5]): > 20 mg/kg; ED50 (Rattus norvegicus [19]): > 10 mg/kg |
| Cl.Nc1ccccc1N1CC2(CCNCC2)c2ccccc21 | > 10 mg/kg | > 20 mg/kg |  |
